# Measurements reported in patent publication US6806230B1, “Pyrimidine derivatives and herbicides containing them” (Kumiai Chemical Industry Co., Ltd., priority 1999, dated 2004).
# Test system: barnyard grass (Eo)
# Test: Test Example 1: herbicidal effects by flooded paddy field treatment;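 also: 0-5 growth inhibition grade; 5 = over 90%; 4 = 70-90%; 3 = 50-70%; 2 = 30-50%; 1 = 10-30%; 0 = under 10%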
# Assay type: in vivo
# Settings: dose 100 gai/10a, examined on 21st day after treatment, index 0-5 per Table 44
# Method in brief: (§1)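 Puddled paddy soil in pots, seeds sown, 3 cm flood. Day after sowing: wettable powder diluted in water, applied dropwise to water surface, 100 g a.i./10 ares. Greenhouse; visual herbicidal rating at day 21 post-treatment.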
row,Compound,"Herbicidal effect index, Eo"
1,CCC(C)C(c1cncnc1C(F)(F)F)N(C)C(=O)Cc1ccc(C)cc1 (mixture of isomers) [Compound 1-60],5
2,Cc1ccc(CC(=O)N(C)C(c2cncnc2C)C(C)C)cc1 (racemic) [Compound 1-89],5
3,Cc1ccccc1CC(=O)N(C)C(c1cncnc1C(F)(F)F)C(C)C (racemic) [Compound 1-50],5
4,CCN(C(=O)Cc1ccc(C)cc1)C(c1cncnc1C(F)(F)F)C(C)C (racemic) [Compound 1-61],5
5,Cc1ncncc1C(C(C)C)N(C)C(=O)Cc1ccc(Cl)cc1 (racemic) [Compound 1-56],5
6,CC(C)C(c1cncnc1C(F)(F)F)N(C)C(=O)Cc1ccccc1F (racemic) [Compound 1-100],5
7,CCC(C)C(c1cncnc1C(F)(F)F)N(C)C(=O)Cc1ccc(F)cc1 (mixture of isomers) [Compound 1-58],5

# Test system: monochoria (Mo)
# Test: as above
# Assay type: in vivo
# Settings: dose 100 gai/10a, examined on 21st day after treatment, index 0-5 per Table 44
# Method in brief: as §1
row,Compound,"Herbicidal effect index, Mo"
1,CCC(C)C(c1cncnc1C(F)(F)F)N(C)C(=O)Cc1ccc(C)cc1 (mixture of isomers) [Compound 1-60],5
2,Cc1ccc(CC(=O)N(C)C(c2cncnc2C)C(C)C)cc1 (racemic) [Compound 1-89],5
3,Cc1ccccc1CC(=O)N(C)C(c1cncnc1C(F)(F)F)C(C)C (racemic) [Compound 1-50],5
4,CCN(C(=O)Cc1ccc(C)cc1)C(c1cncnc1C(F)(F)F)C(C)C (racemic) [Compound 1-61],5
5,Cc1ncncc1C(C(C)C)N(C)C(=O)Cc1ccc(Cl)cc1 (racemic) [Compound 1-56],5
6,CC(C)C(c1cncnc1C(F)(F)F)N(C)C(=O)Cc1ccccc1F (racemic) [Compound 1-100],5
7,CCC(C)C(c1cncnc1C(F)(F)F)N(C)C(=O)Cc1ccc(F)cc1 (mixture of isomers) [Compound 1-58],5

# Test system: barnyard grass (Ec)
# Test: Test Example 2: herbicidal effects by upland soil treatment;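 as to herbicidal effects, Se (green foxtail): 0-5 growth inhibition grade; 5 = over 90%; 4 = 70-90%; 3 = 50-70%; 2 = 30-50%; 1 = 10-30%; 0 = under 10%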
# Assay type: in vivo
# Parameters: scale not given here
# Settings: dose 100 g active ingredient per 10 ares, examined on the 21st day after treatment, standards of Table 44
# Method in brief: (§2)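 Pre-emergence test: barnyard grass and green foxtail sown in upland soil, then soil surface sprayed with wettable-powder formulation at 100 g active ingredient per 10 ares (100 l per 10 ares). Grown in greenhouse; herbicidal effect scored on a rating scale 21 days after treatment.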
row,Compound,"herbicidal effects, Ec (barnyard grass)"
1,CCC(C)C(c1cncnc1C(F)(F)F)N(C)C(=O)Cc1ccc(C)cc1 (mixture of isomers) [Compound 1-60],5
2,Cc1ccc(CC(=O)N(C)C(c2cncnc2C)C(C)C)cc1 (racemic) [Compound 1-89],5
3,Cc1ccccc1CC(=O)N(C)C(c1cncnc1C(F)(F)F)C(C)C (racemic) [Compound 1-50],5
4,CCN(C(=O)Cc1ccc(C)cc1)C(c1cncnc1C(F)(F)F)C(C)C (racemic) [Compound 1-61],5
5,Cc1ncncc1C(C(C)C)N(C)C(=O)Cc1ccc(Cl)cc1 (racemic) [Compound 1-56],5
6,CC(C)C(c1cncnc1C(F)(F)F)N(C)C(=O)Cc1ccccc1F (racemic) [Compound 1-100],5
7,CCC(C)C(c1cncnc1C(F)(F)F)N(C)C(=O)Cc1ccc(F)cc1 (mixture of isomers) [Compound 1-58],5

# Test system: green foxtail (Se)
# Test: as above
# Assay type: in vivo
# Settings: dose 100 g active ingredient per 10 ares, examined on the 21st day after treatment, standards of Table 44
# Method in brief: as §2
row,Compound,"herbicidal effects, Se (green foxtail)"
1,CCC(C)C(c1cncnc1C(F)(F)F)N(C)C(=O)Cc1ccc(C)cc1 (mixture of isomers) [Compound 1-60],5
2,Cc1ccc(CC(=O)N(C)C(c2cncnc2C)C(C)C)cc1 (racemic) [Compound 1-89],5
3,Cc1ccccc1CC(=O)N(C)C(c1cncnc1C(F)(F)F)C(C)C (racemic) [Compound 1-50],5
4,CCN(C(=O)Cc1ccc(C)cc1)C(c1cncnc1C(F)(F)F)C(C)C (racemic) [Compound 1-61],5
5,Cc1ncncc1C(C(C)C)N(C)C(=O)Cc1ccc(Cl)cc1 (racemic) [Compound 1-56],5
6,CC(C)C(c1cncnc1C(F)(F)F)N(C)C(=O)Cc1ccccc1F (racemic) [Compound 1-100],5
7,CCC(C)C(c1cncnc1C(F)(F)F)N(C)C(=O)Cc1ccc(F)cc1 (mixture of isomers) [Compound 1-58],5

# Test system: barnyard grass (Ec)
# Test: Test Example 3: herbicidal effects by foliage treatment in upland field
# Assay type: in vivo
# Parameters: scale not given here
# Settings: dose 100 g active ingredient per 10 ares, examined on the 14th day after treatment
# Method in brief: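 Barnyard grass and green foxtail were grown in upland soil for 2 weeks in a greenhouse. A water-diluted wettable powder was sprayed over the foliage at 100 l per 10 ares, giving 100 g active ingredient per 10 ares. Herbicidal effect was scored on day 14 after treatment.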
row,Compound,"Ec (herbicidal effects, index)"
1,CCC(C)C(c1cncnc1C(F)(F)F)N(C)C(=O)Cc1ccc(C)cc1 (mixture of isomers) [Compound 1-60],4
2,Cc1ccc(CC(=O)N(C)C(c2cncnc2C)C(C)C)cc1 (racemic) [Compound 1-89],5
3,Cc1ccccc1CC(=O)N(C)C(c1cncnc1C(F)(F)F)C(C)C (racemic) [Compound 1-50],4
4,CCN(C(=O)Cc1ccc(C)cc1)C(c1cncnc1C(F)(F)F)C(C)C (racemic) [Compound 1-61],4
5,Cc1ncncc1C(C(C)C)N(C)C(=O)Cc1ccc(Cl)cc1 (racemic) [Compound 1-56],4
6,CC(C)C(c1cncnc1C(F)(F)F)N(C)C(=O)Cc1ccccc1F (racemic) [Compound 1-100],5
7,CCC(C)C(c1cncnc1C(F)(F)F)N(C)C(=O)Cc1ccc(F)cc1 (mixture of isomers) [Compound 1-58],4

# Test system: barnyard grass (Eo)
# Test: Test Example 4: selectivity for a crop plant by flooded paddy field treatment
# Assay type: in vivo
# Parameters: scale not given here
# Settings: dose 25 g active ingredient per 10 ares, examined on the 21st day after treatment
# Method in brief: (§3)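 Flooded paddy pots, 3 cm water; weeds sown from seed, rice transplanted at 2nd-leaf stage. Day after: wettable powder diluted in water, applied dropwise to water surface, 25 g a.i./10 a. Greenhouse; herbicidal effect rated at day 21.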
row,Compound,"Eo (herbicidal effects, index)"
1,CCC(C)C(c1cncnc1C(F)(F)F)N(C)C(=O)Cc1ccc(C)cc1 (mixture of isomers) [Compound 1-60],5
2,Cc1ccc(CC(=O)N(C)C(c2cncnc2C)C(C)C)cc1 (racemic) [Compound 1-89],5
3,Cc1ccccc1CC(=O)N(C)C(c1cncnc1C(F)(F)F)C(C)C (racemic) [Compound 1-50],5
4,CCN(C(=O)Cc1ccc(C)cc1)C(c1cncnc1C(F)(F)F)C(C)C (racemic) [Compound 1-61],5

# Test system: monochoria (Mo)
# Test: as above
# Assay type: in vivo
# Parameters: scale not given here
# Settings: dose 25 g active ingredient per 10 ares, examined on the 21st day after treatment
# Method in brief: as §3
row,Compound,"Mo (herbicidal effects, index)"
1,CCC(C)C(c1cncnc1C(F)(F)F)N(C)C(=O)Cc1ccc(C)cc1 (mixture of isomers) [Compound 1-60],5
2,Cc1ccc(CC(=O)N(C)C(c2cncnc2C)C(C)C)cc1 (racemic) [Compound 1-89],5
3,Cc1ccccc1CC(=O)N(C)C(c1cncnc1C(F)(F)F)C(C)C (racemic) [Compound 1-50],5
4,CCN(C(=O)Cc1ccc(C)cc1)C(c1cncnc1C(F)(F)F)C(C)C (racemic) [Compound 1-61],5

# Test system: rice (Or)
# Test: as above
# Assay type: in vivo
# Parameters: scale not given here
# Settings: rice transplanted at second leaf stage, dose 25 g active ingredient per 10 ares, examined on the 21st day after treatment
# Method in brief: as §3
row,"Or (effect on crop plant rice, index)",Compound
1,1,CCC(C)C(c1cncnc1C(F)(F)F)N(C)C(=O)Cc1ccc(C)cc1 (mixture of isomers) [Compound 1-60]
2,0,Cc1ccc(CC(=O)N(C)C(c2cncnc2C)C(C)C)cc1 (racemic) [Compound 1-89]
3,1,Cc1ccccc1CC(=O)N(C)C(c1cncnc1C(F)(F)F)C(C)C (racemic) [Compound 1-50]
4,1,CCN(C(=O)Cc1ccc(C)cc1)C(c1cncnc1C(F)(F)F)C(C)C (racemic) [Compound 1-61]

# Test system: barnyard grass (Ec)
# Test: Test Example 5: selectivity for a crop plant by soil treatment in upland field
# Assay type: in vivo
# Parameters: scale not given here
# Settings: dose 25 gai/10a, 21st day after treatment, index per Table 44
# Experimental: (§4) In a 80 cm^2 plastic pot, upland soil was filled, and seeds of barnyard grass (Ec), green foxtail (Se), soybean (G1), wheat (Tr) and corn (Ze) were sown and covered with soil. A wettable powder prepared in accordance with Formulation Example 1 was diluted with water and uniformly applied to the soil surface by a small size spray at a rate of 100 l per 10 ares so that the dose of the active ingredient would be 25 g per 10 ares. Thereafter, cultivation was carried out in a green house, and on the 21st day after the treatment, the herbicidal effects were examined in accordance with the standards of Table 44.
row,Compound,Ec (herbicidal effect index)
1,CCC(C)C(c1cncnc1C(F)(F)F)N(C)C(=O)Cc1ccc(C)cc1 (mixture of isomers) [Compound 1-60],5
2,Cc1ccc(CC(=O)N(C)C(c2cncnc2C)C(C)C)cc1 (racemic) [Compound 1-89],4
3,Cc1ccccc1CC(=O)N(C)C(c1cncnc1C(F)(F)F)C(C)C (racemic) [Compound 1-50],4
4,CCN(C(=O)Cc1ccc(C)cc1)C(c1cncnc1C(F)(F)F)C(C)C (racemic) [Compound 1-61],5
5,Cc1ncncc1C(C(C)C)N(C)C(=O)Cc1ccc(Cl)cc1 (racemic) [Compound 1-56],5
6,CC(C)C(c1cncnc1C(F)(F)F)N(C)C(=O)Cc1ccccc1F (racemic) [Compound 1-100],5
7,CCC(C)C(c1cncnc1C(F)(F)F)N(C)C(=O)Cc1ccc(F)cc1 (mixture of isomers) [Compound 1-58],5

# Test system: corn (Ze)
# Test: as above
# Assay type: in vivo
# Parameters: scale not given here
# Settings: dose 25 gai/10a, 21st day after treatment, index per Table 44
# Experimental: as §4
row,Compound,Ze (herbicidal effect index on crop)
1,CCC(C)C(c1cncnc1C(F)(F)F)N(C)C(=O)Cc1ccc(C)cc1 (mixture of isomers) [Compound 1-60],0
2,Cc1ccc(CC(=O)N(C)C(c2cncnc2C)C(C)C)cc1 (racemic) [Compound 1-89],2
3,Cc1ccccc1CC(=O)N(C)C(c1cncnc1C(F)(F)F)C(C)C (racemic) [Compound 1-50],0
4,CCN(C(=O)Cc1ccc(C)cc1)C(c1cncnc1C(F)(F)F)C(C)C (racemic) [Compound 1-61],0
5,Cc1ncncc1C(C(C)C)N(C)C(=O)Cc1ccc(Cl)cc1 (racemic) [Compound 1-56],3
6,CC(C)C(c1cncnc1C(F)(F)F)N(C)C(=O)Cc1ccccc1F (racemic) [Compound 1-100],2
7,CCC(C)C(c1cncnc1C(F)(F)F)N(C)C(=O)Cc1ccc(F)cc1 (mixture of isomers) [Compound 1-58],0

# Test system: soybean (G1)
# Test: as above
# Assay type: in vivo
# Parameters: scale not given here
# Settings: dose 25 gai/10a, 21st day after treatment, index per Table 44
# Experimental: as §4
row,Compound,Gl (herbicidal effect index on crop)
1,CCC(C)C(c1cncnc1C(F)(F)F)N(C)C(=O)Cc1ccc(C)cc1 (mixture of isomers) [Compound 1-60],1
2,Cc1ccc(CC(=O)N(C)C(c2cncnc2C)C(C)C)cc1 (racemic) [Compound 1-89],0
3,Cc1ccccc1CC(=O)N(C)C(c1cncnc1C(F)(F)F)C(C)C (racemic) [Compound 1-50],3
4,CCN(C(=O)Cc1ccc(C)cc1)C(c1cncnc1C(F)(F)F)C(C)C (racemic) [Compound 1-61],1
5,Cc1ncncc1C(C(C)C)N(C)C(=O)Cc1ccc(Cl)cc1 (racemic) [Compound 1-56],0
6,CC(C)C(c1cncnc1C(F)(F)F)N(C)C(=O)Cc1ccccc1F (racemic) [Compound 1-100],0
7,CCC(C)C(c1cncnc1C(F)(F)F)N(C)C(=O)Cc1ccc(F)cc1 (mixture of isomers) [Compound 1-58],0

# Test system: wheat (Tr)
# Test: as above
# Assay type: in vivo
# Parameters: scale not given here
# Settings: dose 25 gai/10a, 21st day after treatment, index per Table 44
# Experimental: as §4
row,Compound,Tr (herbicidal effect index on crop)
1,CCC(C)C(c1cncnc1C(F)(F)F)N(C)C(=O)Cc1ccc(C)cc1 (mixture of isomers) [Compound 1-60],2
2,Cc1ccc(CC(=O)N(C)C(c2cncnc2C)C(C)C)cc1 (racemic) [Compound 1-89],2
3,Cc1ccccc1CC(=O)N(C)C(c1cncnc1C(F)(F)F)C(C)C (racemic) [Compound 1-50],3
4,CCN(C(=O)Cc1ccc(C)cc1)C(c1cncnc1C(F)(F)F)C(C)C (racemic) [Compound 1-61],3
5,Cc1ncncc1C(C(C)C)N(C)C(=O)Cc1ccc(Cl)cc1 (racemic) [Compound 1-56],4
6,CC(C)C(c1cncnc1C(F)(F)F)N(C)C(=O)Cc1ccccc1F (racemic) [Compound 1-100],2
7,CCC(C)C(c1cncnc1C(F)(F)F)N(C)C(=O)Cc1ccc(F)cc1 (mixture of isomers) [Compound 1-58],3
